The values below come from patent US3966939A, “Novel 2-substituted 6,7-benzomorphan derivatives and salts thereof in analgesic compositions” (Sumitomo Chemical Company, Limited, priority 1972, dated 1976).

Data set [1] is described as follows: Abstinence syndrome / physical dependency on withdrawal after repeated administration (body weight decrease). Type of data set: in vivo, male rats of Wistar strain. Particulars: rats; for Abstinence syndrome: subcutaneous twice a day, body weight decrease on the day after drug withdrawal; for physical dependency: orally or subcutaneously everyday for over one month. Details: key to Abstinence syndrome: +++: severe decrease (about 5% decrease); ++: moderate decrease; +: mild decrease; -: no decrease. The procedure:
(§1) On account of this addiction liability, these analgesics are severely restricted in a therapeutic use.
Note: Groups of male rats of Wistar strain (body weight, 150 g), each group consisting of 20 male rats, were subcutaneously given the test compound twice a day for 4 consecutive weeks. On the next day after drug withdrawal, the body weight was measured. The symbols have the following meanings: +++, severe decrease (about 5% decrease); ++, moderate decrease; +, mild decrease; -, no decrease.

For data set [2] the following is noted: cited from earlier work.
Data set [3] is described as follows: Subcutaneous writhing test (acetic acid). The class given is in vivo, mice. Particulars: for ED50: Mus musculus, sc, mice, subcutaneous 20 minutes before acetic acid, Litchfeld-Wilcoxon's method; for analgesic activity: in words; for analgesic action compared with pentazocine: subcutaneous writhing test, versus pentazocine. The procedure: […]. Note: The test was based on the specific anatagonism of the test compound to the typical syndrome produced by intraperitoneal injection of 0.6% aqueous acetic acid. The syndrome was characterized by intermittent contractions of the abdomen, twisting and turning of the trunk and extension of the hind legs. A group of 5 mice was used for each dose level. The test compound was administered subcutaneously 20 minutes before the injection of acetic acid. […] The ED50 value was calculated according to the Litchfeld-Wilcoxon's method.

Data set [4] in a line: Addiction / drug dependency in (long term) animal tests. Type of data set: in vivo.
From the text: Hitherto, many benzomorphan derivatives (e.g., phenazocine, pentazocine) have been developed as analgesic drugs but most of them have addiction and produce narcotic symptoms at their usual dosages.
as §1

`CC1C2Cc3ccc(O)cc3C1(C)CCN2C` (stereo not drawn) [2'-Hydroxy-2,5,9-trimethyl-6,7-benzomorphan]: the Abstinence syndrome entry in data set [1] (20 mg/kg/day for 4 weeks) is recorded as “++”. For the same compound, in data set [2] (U.S. Pat. No. 3,138,603), the “analgesic activity (known)” value is “potent analgesic activity”. The “addiction liability (known)” value in data set [2] (prior benzomorphan derivatives) is “show an addition liability”.

Consider `CC(C)SCCN1CCC2(C)c3cc(O)ccc3CC1C2C` (stereo not drawn) [2'-Hydroxy-2-(β-isopropylthioethyl)-5,9-dimethyl-6,7-benzomorphan], for which, in data set [3], the ED50 came to 3.6 mg/kg, the analgesic activity result is given as “strong analgesic activity” and the “analgesic action compared with pentazocine” value is “much more potent analgesic action than pentazocine”.

`CCC1C2Cc3ccc(O)cc3C1(CC)CCN2CCSC` (stereo not drawn) [2'-Hydroxy-2-(β-methylthioethyl)-5,9-diethyl-6,7-benzomorphan]: the physical dependency result in data set [1] was “did not produce any physical dependency”. Further, the Abstinence syndrome entry in data set [1] (40 mg/kg/day for 4 weeks) is recorded as “-”. Also, the “addiction in long term animal tests” value in data set [4] is recorded as “do not show addiction”.

For the compound `CSCCN1CCC2(C)c3cc(O)ccc3CC1C2C` (stereo not drawn) [2'-Hydroxy-2-(β-methylthioethyl)-5,9-dimethyl-6,7-benzomorphan], the physical dependency result in data set [1] was “did not produce any physical dependency”. Besides, the Abstinence syndrome result in data set [1] (40 mg/kg/day for 4 weeks) is “-”. In data set [3], the ED50 turned out to be 3.1 mg/kg, the analgesic activity result was “strong analgesic activity” and the “analgesic action compared with pentazocine” value is recorded as “much more potent analgesic action than pentazocine”. The “addiction in long term animal tests” value in data set [4] was “do not show addiction”.

Consider `CCC12CCN(CCSC)C(Cc3ccc(O)cc31)C2` (stereo not drawn) [2'-Hydroxy-2-(β-methylthioethyl)-5-ethyl-6,7-benzomorphan], for which the physical dependency result in data set [1] was “did not produce any physical dependency”. In addition, the Abstinence syndrome result in data set [1] (20 mg/kg/day for 4 weeks) is listed as “-”. In data set [3], the ED50 worked out at 0.34 mg/kg, the analgesic activity entry is reported as “strong analgesic activity” and the “analgesic action compared with pentazocine” value was “much more potent analgesic action than pentazocine”. Moreover, the “addiction in long term animal tests” value in data set [4] is on record as “do not show addiction”.
